According to patent US11491120B2, “Pharmacological prophylactics against stress-induced affective disorders in females” (The Trustees of Columbia University in the City of New York, priority 2017, dated 2022):
Entries after “also recorded” stand apart in the source; their conditions may differ.

Columns and labels:
[1] = tested on: female 129S6/SvEv mice; test: Forced swim test (FST), immobility time, after stress
[2] = tested on: female 129S6/SvEv mice; test: Elevated plus maze (EPM); type: in vivo, mouse; conditions: 0.025 mg/kg, 1 week prophylactic drug, learned helplessness stress
Experimental: The EPM was administered as previously described (58), with the exception that videos were scored using ANY-maze behavioral tracking software (Stoelting Co., Wood Dale, Ill.).
We have previously shown that prophylactic (R,S)-ketamine attenuates helpless behavior in male mice (18). To validate these findings in females, female mice were administered saline, (R,S)-ketamine, or (2R,6R)-HNK one week prior to LH training (FIG. 4A). Two weeks later, mice were tested for escape latency and for depressive- and anxiety-like behaviors in the FST and elevated plus maze (EPM). CFC was again administered following these behavioral assays.

[3] = Forced Swim Test Day 1, Dunnett test Sal vs. drug (0.3), 1 week prophylactic drug
[4] = Forced Swim Test Day 1, Dunnett test Sal vs. drug (2.5), 1 week prophylactic drug
[5] = Forced Swim Test Day 1, Dunnett test Sal vs. drug (10), 1 week prophylactic drug
[6] = Ovariectomized cohort, 1 week prophylactic drug, Forced Swim Test Day 1, OVX mice, K (10), (2R,6R)-HNK (0.025)
[7] = Ovariectomized cohort, 1 week prophylactic drug, Forced Swim Test Day 1, Sham mice, K (10), (2R,6R)-HNK (0.025)
[8] = Ovariectomized cohort, 1 week prophylactic drug, Forced Swim Test Day 1, Sham vs OVX, same drug, K (10), (2R,6R)-HNK (0.025)
[9] = Ovariectomized, E2/P4 replacement, 1 week prophylactic drug, Forced Swim Test Day 2, K (10), (2R,6R)-HNK (0.025), FIG. 5F
[10] = Ovariectomized, same drug, hormone Vehicle vs. E2/P4 replacement, 1 week prophylactic drug, Forced Swim Test Day 2, K (10), (2R,6R)-HNK (0.025), FIG. 5F
[11] = Sal vs. (2R,6R)-HNK (0.025), Fisher's PLSD, 1 week prophylactic drug, learned helplessness stress, Forced Swim Test Day 1
[12] = Sal vs. (2R,6R)-HNK (0.025), Fisher's PLSD, 3 day prophylactic drug/Forced Swim Test Day 1
[13] = Same drug, Sham vs. ovariectomized, 1 week prophylactic drug, Forced Swim Test Day 2, K (10), (2R,6R)-HNK (0.025), FIG. 5C
[14] = Sham-operated females, 1 week prophylactic drug, Forced Swim Test Day 2, K (10), (2R,6R)-HNK (0.025), FIG. 5C

N[C@@]1(c2ccccc2Cl)CCC[C@@H](O)C1=O [(2R,6R)-HNK, (2R,6R)-hydroxynorketamine]
p, Immobility Time Average (min 3-6) ([1]; Forced Swim Test Day 1, Dunnett test Sal vs. drug (0.1), 1 week prophylactic drug): 0.3240
p, Immobility Time (min 1) [1, 3]: 0.0586
p, Immobility Time (min 1-6) [1, 3]: >0.9999
p, Immobility Time (min 3) [1, 3]: >0.9999
p, Immobility Time (min 4) [1, 3]: 0.7424
p, Immobility Time (min 5) [1, 3]: 0.3614
p, Immobility Time (min 6) [1, 3]: 0.9996
p, Immobility Time Average (min 3-6) [1, 3]: 0.9455
* (significance), Immobility Time (min 1) [1, 4]: ** (** p<0.01)
p, Immobility Time (min 1) [1, 4]: 0.0026
p, Immobility Time (min 1-6) [1, 4]: 0.7127
p, Immobility Time (min 3) [1, 4]: 0.9998
p, Immobility Time (min 4) [1, 4]: 0.9999
p, Immobility Time (min 5) [1, 4]: 0.9867
p, Immobility Time (min 6) [1, 4]: 0.9994
p, Immobility Time Average (min 3-6) [1, 4]: 0.9997
p, Immobility Time (min 1) [1, 5]: 0.0528
p, Immobility Time (min 1-6) [1, 5]: 0.9943
p, Immobility Time (min 3) [1, 5]: 0.6584
p, Immobility Time (min 4) [1, 5]: 0.5947
p, Immobility Time (min 5) [1, 5]: 0.6743
p, Immobility Time (min 6) [1, 5]: 0.1601
p, Immobility Time Average (min 3-6) [1, 5]: 0.3035
p, Immobility Time (min 1-6), OVX Sal vs OVX drug [1, 6]: 0.2525
p, Immobility Time Average (min 3-6), Fisher's PLSD, OVX Sal vs OVX drug [1, 6]: 0.3199
p, Immobility Time (min 1-6), Sham Sal vs Sham drug [1, 7]: 0.7085
p, Immobility Time Average (min 3-6), Fisher's PLSD, Sham Sal vs Sham drug [1, 7]: 0.9957
* (significance), Immobility Time (min 1-6), Sham drug vs OVX drug [1, 8]: *** (*** p<0.0001)
* (significance), Immobility Time Average (min 3-6), Fisher's PLSD, Sham drug vs OVX drug [1, 8]: *** (*** p<0.0001)
p, Immobility Time (min 1-6), Sham drug vs OVX drug [1, 8]: <0.0001
p, Immobility Time Average (min 3-6), Fisher's PLSD, Sham drug vs OVX drug [1, 8]: 0.0001
p, Fisher's PLSD, Immobility Time Average (min 3-6), OVX Sal vs. OVX drug ([1]; Ovariectomized females, 1 week prophylactic drug, Forced Swim Test Day 2, K (10), (2R,6R)-HNK (0.025), FIG. 5C): 0.9445
p, Fisher's PLSD, Immobility Time Average (min 3-6), E2/P4 Sal vs. E2/P4 drug [1, 9]: 0.0316
significance (*), Fisher's PLSD, Immobility Time Average (min 3-6), E2/P4 Sal vs. E2/P4 drug [1, 9]: * (* p<0.05)
p, Fisher's PLSD, Immobility Time Average (min 3-6), Vehicle Sal vs. Vehicle drug ([1]; Ovariectomized, hormone Vehicle, 1 week prophylactic drug, Forced Swim Test Day 2, K (10), (2R,6R)-HNK (0.025), FIG. 5F): 0.6287
p, Fisher's PLSD, Immobility Time Average (min 3-6), Vehicle drug vs. E2/P4 drug [1, 10]: 0.0013
significance (*), Fisher's PLSD, Immobility Time Average (min 3-6), Vehicle drug vs. E2/P4 drug [1, 10]: ** (** p<0.01)
*, Immobility Time (min 1) [1, 11]: ** (** p<0.01)
*, Immobility Time (min 2) [1, 11]: *** (*** p<0.0001)
*, Immobility Time (min 3) [1, 11]: *** (*** p<0.0001)
*, Immobility Time (min 4) [1, 11]: ** (** p<0.01)
*, Immobility Time (min 5) [1, 11]: ** (** p<0.01)
*, Immobility Time (min 6) [1, 11]: ** (** p<0.01)
*, Immobility Time Average (min 1-6) [1, 11]: *** (*** p<0.0001)
p, Immobility Time (min 1) [1, 11]: 0.0043
p, Immobility Time (min 2) [1, 11]: <0.0001
p, Immobility Time (min 3) [1, 11]: 0.0001
p, Immobility Time (min 4) [1, 11]: 0.0009
p, Immobility Time (min 5) [1, 11]: 0.0002
p, Immobility Time (min 6) [1, 11]: 0.0002
p, Immobility Time Average (min 1-6) [1, 11]: 0.0001
*, Immobility Time (min 1) [1, 12]: *** (*** p<0.0001)
*, Immobility Time (min 2) [1, 12]: ** (** p<0.01)
*, Immobility Time (min 3) [1, 12]: ** (** p<0.01)
*, Immobility Time (min 4) [1, 12]: ** (** p<0.01)
*, Immobility Time (min 5) [1, 12]: ** (** p<0.01)
*, Immobility Time (min 6) [1, 12]: ** (** p<0.01)
*, Immobility Time Average (min 3-6) [1, 12]: ** (** p<0.01)
p, Immobility Time (min 1) [1, 12]: <0.0001
p, Immobility Time (min 2) [1, 12]: 0.0005
p, Immobility Time (min 3) [1, 12]: 0.0073
p, Immobility Time (min 4) [1, 12]: 0.0039
p, Immobility Time (min 5) [1, 12]: 0.0006
p, Immobility Time (min 6) [1, 12]: 0.0006
p, Immobility Time Average (min 3-6) [1, 12]: 0.0008
p, Immobility Time (min 1) ([1]; Sal vs. (2R,6R)-HNK (0.025), Fisher's PLSD, Antidepressant drug/Forced Swim Test Day 2): 0.2184
p, Immobility Time Average (min 3-6) ([1]; Sal vs. (2R,6R)-HNK (0.025), t-test, 24 hour prophylactic drug/Forced Swim Test Day 1): 0.5779
p, Fisher's PLSD, Immobility Time Average (min 3-6), Sham drug vs. OVX drug [1, 13]: 0.0476
significance (*), Fisher's PLSD, Immobility Time Average (min 3-6), Sham drug vs. OVX drug [1, 13]: * (* p<0.05)
p, Fisher's PLSD, Immobility Time Average (min 3-6), Sham Sal vs. Sham drug [1, 14]: 0.0099
significance (*), Fisher's PLSD, Immobility Time Average (min 3-6), Sham Sal vs. Sham drug [1, 14]: ** (** p<0.01)
Immobility in the FST (Day 1 and Day 2) vs saline ([1]; drug administered 1 hour after 3-shock CFC stressor, female mice): did not reduce immobility levels; also recorded: Neither (R,S)-ketamine nor (2R,6R)-HNK significantly affected immobility time
Prophylactically effective dose in females ([1]; female mice, 1 week before stressor): 0.025 mg/kg
Immobility in the FST vs saline ([1]; ovariectomized mice with cyclic E2 and P4 replacement, drug 1 week before CFC): significantly less immobile compared to control saline mice; also recorded: significantly reduced immobility
Prophylactic efficacy against stress-induced depressive-like behavior ([1]; single injection 1 week before stressor, female mice): significantly reduced stress-induced depressive-like behavior; also recorded: significantly decreased stress-induced depressive-like behavior; also recorded: is prophylactic against depressive-like behavior; also recorded: prophylactic against stress-induced depressive-like behavior; also recorded: effective prophylactics against a variety of stressors; also recorded: protect against stress-induced depressive-like behavior
P, Sal vs. drug, Fisher's PLSD: Time in Closed Arms Average (min 1-6), Elevated Plus Maze [2]: 0.3285
P, Sal vs. drug, Fisher's PLSD: Time in Open Arms Average (min 1-6), Elevated Plus Maze [2]: 0.9855
